This is an account of results in paper PMC12355554, “Development of novel mitochondrial pyruvate carrier inhibitors for breast cancer treatment” (The Journal of Biological Chemistry, 2025).

Entries after “also recorded” stand apart in the source; their conditions may differ.

One data set deals with 4T1. Nature of the data set: MTT cell proliferation inhibition assay, 4T1. The data set is classed as cell-based, murine. As to conditions: Mus musculus, 72 h, 3 days, average ± SEM. On the procedure:
(§1) Confluent cell cultures were treated with trypsin and resuspended at 5 × 10^4 cells/ml. To a 96-well plate, 100 μl of the 5 × 10^4 cells/ml solution were added and allowed to incubate at 37 °C, 5% CO2 for 24 h. Compounds were then added and allowed to incubate for 3 days. […] Following the 4-h incubation with 3-(4,5-dimethylthiazol-2-yl)-2,5-diphenyltetrazolium bromide, 100 μl of SDS (0.1 g/ml, 0.01 N HCl) was added, and 96-well plates were allowed to incubate for an additional 4 h. […] Treatment absorbances are taken as percentages of the average untreated absorbances and plotted against log(concentration) in GraphPad Prism 10 (GraphPad Software, Inc) to generate effective concentration values where 50% of the cells are not proliferating (EC50).

Data set [1] addresses T1, mitochondrial pyruvate carrier (MPC) (Mus musculus, UniProt P63030+Q9D023).
T1 construct: host or cells: 4T1 murine breast cancer cells, rPFO-permeabilized
T1 sequence (P63030 1-109): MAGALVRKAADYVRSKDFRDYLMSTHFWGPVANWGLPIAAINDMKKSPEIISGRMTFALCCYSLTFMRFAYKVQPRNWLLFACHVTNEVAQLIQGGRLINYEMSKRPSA
T1 sequence (Q9D023 1-127): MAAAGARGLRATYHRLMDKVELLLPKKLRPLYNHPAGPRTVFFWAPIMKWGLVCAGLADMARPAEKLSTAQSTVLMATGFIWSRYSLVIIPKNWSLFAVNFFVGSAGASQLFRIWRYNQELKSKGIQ
Nature of the data set: Methyl pyruvate reversal of inhibited Pyr-driven respiration. The format is cell-based, murine. As to conditions: permeabilized 4T1 cells; 20 mM methyl Pyr. An excerpt: (§2) Although our initial experiments and previous literature illustrate the ability of the candidate compounds to inhibit Pyr-driven respiration, we sought to investigate the ability of candidate compounds to inhibit respiration fueled by other metabolic substrates, glutamate and succinate (Fig. 2). Glutamate, similar to Pyr oxidation, results in NADH equivalents that fuel complex I-mediated respiration, and succinate metabolism offers FADH2 for electrons in complex II-driven respiratory processes. […] To further validate the mode of action of the candidate compounds, a series of similar Seahorse experiments were employed (Fig. 2, A–C). In these experiments, 4T1 cells were first permeabilized and were then offered metabolic substrates Pyr (Pyr/Mal; Fig. 2A), glutamate (Glu/Mal, Fig. 2B), or succinate (Fig. 2C), and the resulting OCR was observed. As described previously, Mal and DCA were included in the substrate milieu of glutamate respiration experiments. […] To validate that inhibition of Pyr respiration is due to mitochondrial Pyr uptake and not other Pyr-processing enzymes (i.e., Pyr dehydrogenase), a parallel experiment using methyl pyruvate (MePyr) was employed (Fig. 2, E and F). MePyr is permeable to the mitochondrial membranes, where in the matrix, mitochondrial esterase hydrolysis activity provides Pyr.
Permeabilized cell assays were performed using rPFO as described previously. […]

For a further data set, the system named is 67NR. Kind of data set: Sulforhodamine B cell proliferation inhibition assay, 67NR. The data set is classed as cell-based, murine. As to conditions: Mus musculus, 72 h, average ± SEM. Here is the method:
(§3) Cells were seeded (3 × 10^4 cells/well) in 48-well plates and incubated overnight (37 °C, 5% CO2). Test compounds were then exposed to cells in duplicate in serial dilution fashion and were incubated for an additional 72 h (37 °C, 5% CO2). Media were then aspirated, and cells were washed three times with cold PBS and left overnight to dry fix. […] Dyed cells were then lysed with Tris (10 mM, pH 10), and absorbance readings were recorded at 540 nm of each well. Treatment absorbances are taken as percentages of the average untreated absorbances and plotted against log(concentration) in GraphPad Prism 10 to generate effective concentration values where 50% of the cells are not proliferating (EC50).

The test system of the next data set is 67NR tumor. Kind of data set: Tumor efficacy study in a 67NR syngraft. The note with it: 14-day treatment.
Data set [2] concerns succinate-driven respiration in 4T1 cells. Kind of data set: Seahorse succinate-driven respiration in permeabilized 4T1 cells. The data set is classed as cell-based, murine. The note with it: candidate compounds 1 μM.
Description: as §2
Permeabilized cell assays were performed using rPFO as described previously. 4T1 cells were seeded (20,000 cells/well) onto Seahorse XFe96 well plates and incubated overnight in growth media at 37 °C and 5% CO2 for adherence. On the day of the assay, growth media were aspirated and replaced with MAS buffer (70 mM sucrose, 220 mM mannitol, 10 mM potassium phosphate monobasic, 5 mM magnesium chloride, 2 mM Hepes, and 1 mM EGTA) after 3X rinse of growth media to remove serum and endogenous metabolic substrates, and incubated at 37 °C in a non-CO2 incubator. Respective inhibitor and substrate milieu's were prepared in MAS buffer for port injections A–D at 8X, 9X, 10X, and 11X the target cell concentrations to account for intrinsic dilution factor of in situ injections of each port. […] Final substrate concentrations for specific tests were as follows: (5 mM Pyr , 0.5 mM Mal, 2 mM DCA; 10 mM glutamate, 0.5 mM Mal, 2 mM DCA; 10 mM succinate, 2 μM rotenone; 20 mM methyl Pyr, 5 mM Pyr, 0.5 mM Mal, and 2 mM DCA). ATP rate assays and mitochondrial stress tests were performed according to the manufacturer's (Agilent) instructions.

Data set [3] is described as follows: Maximum tolerated dose study, oral dosing, 21 days. The data set is classed as in vivo, severe combined immunodeficient mice.
In another data set the test system is 4T1 cells. Kind of data set: Seahorse mitochondrial stress test in intact 4T1 cells. The data set is classed as cell-based, murine.
A further data set concerns 4T1 tumor. Nature of the data set: Tumor efficacy study in a 4T1 syngraft. The note with it: 5 mg/kg daily for 11 days.
Data set [4] relates to MDA-MB-231. Kind of data set: Sulforhodamine B cell proliferation inhibition assay, MDA-MB-231. The note with it: Homo sapiens, 72 h. The data set is classed as cell-based. On the procedure:
as §3

Data set [5] deals with MDA-MB-231. Nature of the data set: MTT cell proliferation inhibition assay, MDA-MB-231. The format is cell-based. The note with it: Homo sapiens, 72 h, 3 days. Here is the method:
as §1

With `CN(Cc1ccc(C(F)(F)F)cc1)c1ccc2cc(C(=O)O)c(=O)oc2c1.NC(CO)(CO)CO` [C5, 1,3-dihydroxy-2-(hydroxymethyl)propan-2-aminium 7-(methyl(4-(trifluoromethyl)benzyl)amino)-2-oxo-2H-chromene-3-carboxylate], the concentration for a half-maximal effect (EC50) in the data set on 4T1 is 23.4 ± 4.9 µM; in the data set on 67NR, 94.7 ± 12.9 µM; with MDA-MB-231 [4], greater than 1000 µM; with MDA-MB-231 [5], greater than 1000 µM. For the same compound, in data set [1], the “reversal of Pyr-driven respiration effects by methyl pyruvate” value is listed as “able to reverse”. Further, the mouse body weight entry in the data set on 67NR tumor is “remained stable”; in the data set on 4T1 tumor it was “remained constant”. For the same compound, in data set [2], the “effect on succinate-driven respiration” value was “does not alter; also recorded: did not alter”. Also, in data set [3] (female, BALB/c, mouse, in vivo, oral, daily for 21 days), the MTD at 21 days was 40 mg/kg. For the same compound, the “changes in body weight or behavior” value in data set [3] (oral 10, 20, 40 mg/kg daily for 21 days) is recorded as “not any significant changes”. Besides, in the data set with 4T1 cells, the “compensatory glycolysis (extracellular acidification rates)” value is given as “dose-dependent decrease”. For the same compound, in the data set with 4T1 cells (media with glucose, Pyr, glutamine), the “mitochondrial respiration (OCR)” value is listed as “inhibited mitochondrial respiration in a dose-dependent fashion”. In addition, the “reduction in tumor mass compared with vehicle” value with 4T1 tumor (BALB/c) is roughly 41%. The “reduction in tumor volume compared with vehicle” value in the data set on 4T1 tumor (BALB/c) is recorded as roughly 20%.
